Measured values from the Deep4Chem optical property database.

Test: photoluminescence quantum yield (fraction); solvent given as SMILES

## COc1ccc(/N=N/c2c(O)c3ccccc3n(C)c2=O)c(S(=O)(=O)O)c1
In CS(C)=O
  photoluminescence quantum yield: 0.03

## CCC1=C(C)C(=O)n2c1cc1[nH]c(C(=O)OC(C)(C)C)c(C)c1c2=O
In C1CCCCC1
  photoluminescence quantum yield: 0.03
In CO
  photoluminescence quantum yield: 0.71
In CS(C)=O
  photoluminescence quantum yield: 0.86
In ClC(Cl)Cl
  photoluminescence quantum yield: 0.72
In c1ccccc1
  photoluminescence quantum yield: 0.16

## CCN(CC)c1ccc2cc(-c3nc4cc(C(=O)Nc5ccccc5)ccc4o3)c(=O)oc2c1
In ClCCl
  photoluminescence quantum yield: 0.35

## Cc1cc2c(o1)c(C)cc1ccc(=O)oc12
In C1CCCCC1
  photoluminescence quantum yield: 0.0001
In C1COCCO1
  photoluminescence quantum yield: 0.0001
In CC#N
  photoluminescence quantum yield: 0.001
In CCO
  photoluminescence quantum yield: 0.007
In OCC(F)(F)F
  photoluminescence quantum yield: 0.03

## COc1ccc(C2=C(c3ccc(C)cc3)C(c3ccccc3)=[N+]3C2=Nc2c(-c4ccc(OC)cc4)c(-c4ccc(C)cc4)c(-c4ccccc4)n2[B-]3(F)F)cc1
In Cc1ccccc1
  photoluminescence quantum yield: 0.01

## FC(F)(F)c1ccc(-c2ncc3ccccn23)cc1
In ClC(Cl)Cl
  photoluminescence quantum yield: 0.04

## O=C1CCCC2=C1CC1=C(CCCC1=O)N2NC(=O)c1ccccc1
In C1CCOC1
  photoluminescence quantum yield: 0.33
In CC#N
  photoluminescence quantum yield: 0.46
In CC(C)=O
  photoluminescence quantum yield: 0.42
In CCCCCO
  photoluminescence quantum yield: 0.42
In CO
  photoluminescence quantum yield: 0.34
In ClC(Cl)Cl
  photoluminescence quantum yield: 0.62
In ClCCl
  photoluminescence quantum yield: 0.31

## COc1ccc(C2=C(c3ccc(-c4ccccc4)cc3)C(c3ccccc3)=[N+]3C2=Nc2c(-c4ccc(OC)cc4)c(-c4ccc(-c5ccccc5)cc4)c(-c4ccccc4)n2[B-]3(F)F)cc1
In Cc1ccccc1
  photoluminescence quantum yield: 0.01

## COc1cc2c3c4c(c5ccc(C(C)(C)C)cc5c5c(OC)cc(OC)c(c2c(OC)c1OC)c45)=[N+]1C3=Nc2c3c4cc(OC)c(OC)c(OC)c4c4c(OC)cc(OC)c5c6cc(C(C)(C)C)ccc6c(c3c54)n2[B-]1(F)F
In Cc1ccccc1
  photoluminescence quantum yield: 0.13

## COc1ccc2cc(-c3cc(-c4ccccc4)c4n3[B-](F)(F)[N+]3=C5C=NC=CN5[B-](F)(F)[N+]3=C4)ccc2c1
In ClCCl
  photoluminescence quantum yield: 0.43

## CCCCCCn1c2cc(/C=C/c3cccs3)ccc2c2ccc(/C=C/c3cccs3)cc21
In ClC(Cl)Cl
  photoluminescence quantum yield: 0.89

## CC(C)[Si](C#Cc1ccc(-c2c3cccc4c5cccc6c(-c7ccc(C#C[Si](C(C)C)(C(C)C)C(C)C)cc7)c7cccc8c9cccc2c9c(c34)c(c65)c78)cc1)(C(C)C)C(C)C
In Cc1ccccc1
  photoluminescence quantum yield: 0.38

## c1ccc(-c2cc(-c3ccc(-c4nc(-c5ccccn5)c(-c5ccccn5)[nH]4)cc3)cc(-c3ccccn3)n2)nc1
In C1CCOC1
  photoluminescence quantum yield: 0.06
In CC#N
  photoluminescence quantum yield: 0.08
In CC(C)=O
  photoluminescence quantum yield: 0.201
In CCCCCC
  photoluminescence quantum yield: 0.006
In CCO
  photoluminescence quantum yield: 0.202
In CCOC(C)=O
  photoluminescence quantum yield: 0.153
In CN(C)C=O
  photoluminescence quantum yield: 0.135
In CO
  photoluminescence quantum yield: 0.078
In CS(C)=O
  photoluminescence quantum yield: 0.111
In ClC(Cl)Cl
  photoluminescence quantum yield: 0.13
In ClCCl
  photoluminescence quantum yield: 0.145
In O
  photoluminescence quantum yield: 0.045

## Cc1cc2c(ccc3c(C)[n+](C)c(C)cc32)c(C)[n+]1C
In CC#N
  photoluminescence quantum yield: 0.29

## CCCCCCN1C(=O)c2cccc3c(-c4ccc([N+](=O)[O-])s4)ccc(c23)C1=O
In ClC(Cl)Cl
  photoluminescence quantum yield: 0

## CCOC(=O)CN1C(=O)C2=C(c3ccccc3)N(CC(=O)OCC)C(=O)C2=C1c1ccccc1
In CC#N
  photoluminescence quantum yield: 0.31
In CS(C)=O
  photoluminescence quantum yield: 0.56
In Cc1ccccc1
  photoluminescence quantum yield: 0.36

## COc1ccc(-n2nc(C(=O)c3ccc(Cl)cc3)c(N3CCCC3)n2)cc1
In CC#N
  photoluminescence quantum yield: 0.004

## CC1=C(C#Cc2ccccc2)C2=Cc3c(C#Cc4ccccc4)c(C)c(C)n3[B-](F)(F)[N+]2=C1C
In CC#N
  photoluminescence quantum yield: 1

## C(#Cc1nc(C#Cc2cccs2)c(C#Cc2cccs2)c(C#Cc2cccs2)c1C#Cc1cccs1)c1cccs1
In ClCCl
  photoluminescence quantum yield: 0.48

## COC(=O)CCC(NC(=O)CCNc1cccc2ccccc12)C(=O)OC (centres undefined)
In CCO
  photoluminescence quantum yield: 0.57

## COc1ccc(OC)c(C=O)c1
In C1CCOC1
  photoluminescence quantum yield: 0.0001
In C1COCCO1
  photoluminescence quantum yield: 0.0001
In CC#N
  photoluminescence quantum yield: 0.0001
In CC(C)=O
  photoluminescence quantum yield: 0.01
In CCCO
  photoluminescence quantum yield: 0.31
In CCO
  photoluminescence quantum yield: 0.26
In CN(C)C=O
  photoluminescence quantum yield: 0.0001
In CN(C)P(=O)(N(C)C)N(C)C
  photoluminescence quantum yield: 0.0001
In CNC=O
  photoluminescence quantum yield: 0.11
In CO
  photoluminescence quantum yield: 0.22
In CS(C)=O
  photoluminescence quantum yield: 0.04
In ClC(Cl)Cl
  photoluminescence quantum yield: 0.01
In NC=O
  photoluminescence quantum yield: 0.48

## CC1[C@@H]2[C@@H]1[C@]1(c3ccccc3)N=NC2(c2ccccc2)C2C3C=CC(C3)C21 (some centres undefined)
In CC#N
  photoluminescence quantum yield: 0.018

## CC[N+](CC)=c1ccc2nc3c(cc(NCCC(=O)NC(C)C(=O)OC)c4ccccc43)oc-2c1 (centres undefined)
In CCO
  photoluminescence quantum yield: 0.18
In O
  photoluminescence quantum yield: 0.13

## N#Cc1c(-n2cc(-c3ccccc3)nn2)n([C@H]2C[C@H](O)[C@@H](CO)O2)c2ncnc(N)c12
In CO
  photoluminescence quantum yield: 0.004

## CN(C)c1ccc(C2=Nc3scc(-c4ccc([N+](=O)[O-])cc4)[n+]3[B-](F)(F)O2)cc1
In C1CCOC1
  photoluminescence quantum yield: 0.001
In CC#N
  photoluminescence quantum yield: 0.001
In Cc1ccccc1
  photoluminescence quantum yield: 0.001
In ClCCl
  photoluminescence quantum yield: 0.001

## CCCCC(CC)Cn1c2cc(C#N)ccc2c2ccc(C#Cc3ccc4ccc5c(C#Cc6ccc7c8ccc(C#N)cc8n(CC(CC)CCCC)c7c6)cc(C#Cc6ccc7c8ccc(C#N)cc8n(CC(CC)CCCC)c7c6)c6ccc3c4c56)cc21 (centres undefined)
In ClCCl
  photoluminescence quantum yield: 0.64

## COc1ccc2ccc3oc(=O)c(-c4ccccc4)nc3c2c1
In c1ccccc1
  photoluminescence quantum yield: 0.668

## Cn1c2ccccc2c(=O)c2ccccc21
In CS(C)=O
  photoluminescence quantum yield: 0.65

## Cc1ccccc1C1=C2C=c3c(oc4c3ccc3ccccc34)=[N+]2[B-](F)(F)n2c1cc1c3ccc4ccccc4c3oc12
In C1CCCCC1
  photoluminescence quantum yield: 0.81
In CCOC(C)=O
  photoluminescence quantum yield: 0.69
In CO
  photoluminescence quantum yield: 0.48

## CCCCC(CC)COc1ccc2nc(-c3ccc(-c4ccccc4)s3)sc2c1 (centres undefined)
In ClCCl
  photoluminescence quantum yield: 0.58

## CC1=C(C#Cc2ccccc2)C(C)=[N+]2C1=C(c1ccccc1)c1c(C)c(C#Cc3ccccc3)c(C)n1[B-]2(F)F
In C1CCOC1
  photoluminescence quantum yield: 0.6
In ClCCl
  photoluminescence quantum yield: 0.82

## CN(C)c1ccc2nc(-c3ccc(C(=O)Nc4ccccc4)cc3)sc2c1
In C1CCCCC1
  photoluminescence quantum yield: 0.89
In CC#N
  photoluminescence quantum yield: 0.92
In CC(C)O
  photoluminescence quantum yield: 0.91
In CO
  photoluminescence quantum yield: 0.76
In CS(C)=O
  photoluminescence quantum yield: 0.99
In ClC(Cl)Cl
  photoluminescence quantum yield: 0.98
In c1ccccc1
  photoluminescence quantum yield: 0.92

## CCOC(=O)C1=C(N)n2c(=O)c3ccccc3c(=O)n2C1c1ccc([N+](=O)[O-])cc1 (centres undefined)
In CS(C)=O
  photoluminescence quantum yield: 0.049

## Cn1c(=O)c(/N=N/c2ccc(Nc3ccccc3)c(S(=O)(=O)O)c2)c(O)c2ccccc21
In CS(C)=O
  photoluminescence quantum yield: 0.04

## CCN(CC)c1ccc2c(-c3ccccc3C(=O)O)c3c([o+]c2c1)/C(=C/c1ccc(N(C)C)s1)CCC3
In ClCCl
  photoluminescence quantum yield: 0.04

## C[C@]12SC(=O)C=C1c1nc(-c3ccc(Cl)cc3Cl)[nH]c1C1=CC(=O)S[C@@]12C
In CC#N
  photoluminescence quantum yield: 0.11

## C(#Cc1cccs1)c1ncc(-c2ccccc2)o1
In ClCCl
  photoluminescence quantum yield: 0

## Cc1ccc(-c2c3ccc([nH]3)c3nc(c(-c4ccc(C#N)cc4)c4ccc([nH]4)c4ccc([nH]4)c(-c4ccc(C)cc4)c4ccc2o4)C=C3)cc1
In C1CCOC1
  photoluminescence quantum yield: 0.179
In Cc1ccccc1
  photoluminescence quantum yield: 0.166
In c1ccccc1
  photoluminescence quantum yield: 0.175

## COc1ccc(C#Cc2nc3ccccc3nc2-c2cn(C)c3ccccc23)cc1
In C1CCOC1
  photoluminescence quantum yield: 0.19
In CC#N
  photoluminescence quantum yield: 0.13
In CC(C)=O
  photoluminescence quantum yield: 0.16
In CC(C)O
  photoluminescence quantum yield: 0.02
In CCO
  photoluminescence quantum yield: 0.01
In CCOC(C)=O
  photoluminescence quantum yield: 0.17
In CO
  photoluminescence quantum yield: 0.01
In Cc1ccccc1
  photoluminescence quantum yield: 0.3
In ClCCl
  photoluminescence quantum yield: 0.19

## COCCN(CCOC)c1ccc(/C=C/c2sc3c4nc(C)sc4ccc3[n+]2C)cc1
In ClC(Cl)Cl
  photoluminescence quantum yield: 0.05

## Cn1nc(-c2ccccc2)cc1-c1ccccc1
In ClCCl
  photoluminescence quantum yield: 0.42

## Nc1ccc(N2C(=O)c3ccc4c5ccc6c7c(ccc(c8ccc(c3c48)C2=O)c75)C(=O)N(c2ccc(N)cc2)C6=O)cc1
In CN(C)C=O
  photoluminescence quantum yield: 0.2

## c1ccc(N(c2ccccc2)c2ccc(-c3ncc(-c4cnc(-c5ccc(N(c6ccccc6)c6ccccc6)cc5)s4)s3)cc2)cc1
In CO
  photoluminescence quantum yield: 0.2

## c1ccc2c(c1)Sc1ccccc1N2c1ccc2c(ccc3nc4ccc5cc(N6c7ccccc7Sc7ccccc76)ccc5c4nc32)c1
In C1CCCCC1
  photoluminescence quantum yield: 0.06
In Cc1ccccc1
  photoluminescence quantum yield: 0.07

## COc1ccc(/C=C/c2cc(/C=C/c3ccc(OC)cc3)nc(/C=C/c3ccc(OC)cc3)n2)cc1
In ClCCl
  photoluminescence quantum yield: 0.15

## CC(C)(C)c1cc2c3c(c1)c1cc(C(C)(C)C)cc4c1n3B1c3c-2cccc3-c2cc(C(C)(C)C)cc3c5cc(C(C)(C)C)cc-4c5n1c23
In C1CCOC1
  photoluminescence quantum yield: 0.25

## CCC12N=N[C@](CC)(C3C4CCC(C4)C31)C1[C@@H]3CC[C@@H](C3)[C@H]12 (some centres undefined)
In CC#N
  photoluminescence quantum yield: 0.19

## CC1=C(c2cccs2)C(C)=[N+]2C1=C(c1ccc(OS(=O)(=O)c3ccc([N+](=O)[O-])cc3[N+](=O)[O-])cc1)c1c(C)c(-c3cccs3)c(C)n1[B-]2(F)F
In Cc1ccccc1
  photoluminescence quantum yield: 0.059

## COc1cc2c(cc1-c1ccc(Cl)cc1)Cc1c3c(c4c(c1-2)-c1cc(OC)c(-c2ccc(Cl)cc2)cc1C4)C(=O)N(CCC(C)C)C3=O
In C1CCOC1
  photoluminescence quantum yield: 0.52

## O=P1(c2ccccc2)c2cccc3c4c5ccccc5c5ccccc5c4c4ccc1n4c23 (centres undefined)
In ClCCl
  photoluminescence quantum yield: 0.97

## COc1ccc(C2=c3sc(-c4ccc(OC)cc4)cc3=[N+]3C2=Nc2c(-c4ccc(OC)cc4)c4sc(-c5ccc(OC)cc5)cc4n2[B-]3(F)F)cc1
In ClC(Cl)Cl
  photoluminescence quantum yield: 0.1

## C(/C=C/C1=[NH+]c2cccc3cccc1c23)=c1/[nH]c2cccc3cccc1c32
In CO
  photoluminescence quantum yield: 0.0013

## c1ccc(-n2c(-c3cccc4ccccc34)nc3c4cccc5ccc6cccc(c6c54)c32)cc1
In Cc1ccccc1
  photoluminescence quantum yield: 1

## CCCCCCCCN1c2ccc(C#Cc3cc(C(F)(F)F)cc(C(F)(F)F)c3)cc2Sc2cc(C=O)ccc21
In C1CCOC1
  photoluminescence quantum yield: 0.53
In CC#N
  photoluminescence quantum yield: 0.53
In CCCCCC
  photoluminescence quantum yield: 0.6
In CO
  photoluminescence quantum yield: 0.11
In CS(C)=O
  photoluminescence quantum yield: 0.77
In Cc1ccccc1
  photoluminescence quantum yield: 0.67
In ClC(Cl)Cl
  photoluminescence quantum yield: 0.63

## O=Cc1nc2ccc(C#Cc3ccc(N(c4ccccc4)c4ccccc4)cc3)cc2s1
In Cc1ccccc1
  photoluminescence quantum yield: 0.57
